In assay [1] the test system is reverse transcriptase of avian myeloblastosis virus. The conditions noted are these: 10^-4 M; cited from earlier work.
The test system of assay [2] is reverse transcriptase of Rauscher murine leukemia virus. The conditions noted are these: cited from earlier work.
The subject of the next assay is HIV-1 (strain LAV-1). The assay is described as follows: Inhibition of HIV replication in PBM cells (supernatant RT activity). In kind it is cell-based. The conditions noted are these: human PBM cells, RT activity in supernatant five days after infection; read-out: EC50, inhibition of HIV replication in PBM cells.
In assay [3] the target is HIV-1 reverse transcriptase (Human immunodeficiency virus type 1 group M subtype B, UniProt P04585). The assay is described as follows: Inhibition of purified HIV-1 reverse transcriptase (cell free). It is filed as biochemical. The conditions noted are these: purified enzyme, one hour at 37° C.; read-out: EC50, inhibition of HIV reverse transcriptase. How it is done:
Methodology for Testing Antiviral Drugs for Inhibition of HIV-1 Reverse Transcriptase
Cells and viruses are cultured as described above. […] 12,431-439 (1973). Cocktail, template, compound to be tested and reverse transcriptase are mixed together on ice, then incubated for one hour at 37° C.. The DNA synthesized is acid precipitated and the radioactivity measured, as described by Eriksson, B., et al., Antimicrobial Agents and Chemotherapy 31, 600-604 ([…]).

On to “Hemin, bovine, (chloro protoporphyrin IX Fe(III)) [FePPIXCl]”, for which, in assay [1], the “Inhibition of reverse transcriptase activity (in words)” value is given as “not”. Moreover, in assay [2], the “Concentration inhibiting reverse transcriptase activity” value is reported as 10^-4 M. Also, the figures for the EC50 (in the assay on HIV-1 (strain LAV-1); in assay [3]) were 49.3 µM and 20.5 µM, respectively.

The record behind these values is patent US5281616A, “Porphyrin and phthalocyanine antiviral compositions” (priority 1992, dated 1994).
